The target of experiment [1] is T1, Muscarinic acetylcholine receptor M3 (Homo sapiens, UniProt P20309). The experiment can be described thus: Binding affinity to human muscarinic M3 receptor.
Target sequence in this assay (P20309 whole entry): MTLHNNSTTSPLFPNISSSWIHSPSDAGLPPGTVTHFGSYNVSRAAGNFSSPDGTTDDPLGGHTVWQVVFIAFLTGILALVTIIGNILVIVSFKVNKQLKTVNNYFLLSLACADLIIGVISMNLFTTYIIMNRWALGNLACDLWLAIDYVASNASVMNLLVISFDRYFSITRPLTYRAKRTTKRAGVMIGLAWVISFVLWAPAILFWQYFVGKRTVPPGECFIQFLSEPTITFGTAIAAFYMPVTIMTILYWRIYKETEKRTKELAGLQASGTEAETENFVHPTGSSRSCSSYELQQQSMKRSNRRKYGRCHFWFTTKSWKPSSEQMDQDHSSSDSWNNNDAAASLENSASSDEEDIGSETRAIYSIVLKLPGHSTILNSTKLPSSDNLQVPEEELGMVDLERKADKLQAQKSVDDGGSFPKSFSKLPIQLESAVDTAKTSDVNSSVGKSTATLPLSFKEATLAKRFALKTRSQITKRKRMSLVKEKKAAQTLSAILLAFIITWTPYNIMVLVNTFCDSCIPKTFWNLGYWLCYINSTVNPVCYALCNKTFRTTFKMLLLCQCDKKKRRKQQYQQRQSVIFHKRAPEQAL
Experiment [2] addresses T2, D(1B) dopamine receptor (Homo sapiens, UniProt P21918). The experiment is described as follows: Binding affinity to human dopamine D5 receptor.
Experiment [3] deals with T3, Histamine H2 receptor (Homo sapiens, UniProt P25021). As to conditions: 10 uM.
Description: Inhibition of human histamine H2 receptor at 10 uM
Experiment [4] has as its target T3, Histamine H2 receptor. The experiment is described as follows: Binding affinity to human histamine H2 receptor.
Experiment [5] has as its target T1, Muscarinic acetylcholine receptor M3. The experiment is described as follows: Displacement of [3H]QNB from human muscarinic M3 receptor at 10 uM. A general note: Displacement assays read how much labelled ligand stays bound in the presence of the test substance.
Target sequence in this assay (P20309 whole entry, looked up): as the sequence (P20309 whole entry) above
Experiment [6] has as its target T2, D(1B) dopamine receptor. The experiment can be described thus: Displacement of [3H]SCH23390 from human dopamine D5 receptor at 10 uM.

Three compounds from ChEMBL document CHEMBL2034903, “Bis-spirolabdane diterpenoids from Leonotis nepetaefolia” (J Nat Prod, 2012) can be followed below.

T3 sequence (P25021 whole entry): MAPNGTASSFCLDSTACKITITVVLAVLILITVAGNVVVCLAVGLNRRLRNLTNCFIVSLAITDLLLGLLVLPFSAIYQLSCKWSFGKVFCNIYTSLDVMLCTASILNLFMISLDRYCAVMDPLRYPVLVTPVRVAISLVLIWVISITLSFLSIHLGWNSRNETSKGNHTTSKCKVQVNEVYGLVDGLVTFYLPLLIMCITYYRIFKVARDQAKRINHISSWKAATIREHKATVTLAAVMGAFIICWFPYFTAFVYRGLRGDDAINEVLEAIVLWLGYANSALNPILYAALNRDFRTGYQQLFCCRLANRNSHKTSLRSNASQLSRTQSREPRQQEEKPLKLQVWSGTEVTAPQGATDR
T2 sequence (P21918 whole entry): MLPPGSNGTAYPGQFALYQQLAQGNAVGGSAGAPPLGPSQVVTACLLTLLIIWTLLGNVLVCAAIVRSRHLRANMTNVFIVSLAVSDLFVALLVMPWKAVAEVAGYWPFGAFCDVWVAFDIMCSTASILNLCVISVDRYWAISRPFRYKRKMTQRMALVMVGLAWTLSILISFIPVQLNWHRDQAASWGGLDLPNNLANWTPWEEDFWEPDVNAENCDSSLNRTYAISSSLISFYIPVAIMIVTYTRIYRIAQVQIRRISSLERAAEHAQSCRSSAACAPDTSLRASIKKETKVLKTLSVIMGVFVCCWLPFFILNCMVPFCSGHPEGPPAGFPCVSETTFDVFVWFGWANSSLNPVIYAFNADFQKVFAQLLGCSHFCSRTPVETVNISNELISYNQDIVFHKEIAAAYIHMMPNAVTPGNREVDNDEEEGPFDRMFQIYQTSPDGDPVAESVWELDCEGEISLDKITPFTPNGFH

In the case of `C[C@@]12CCC[C@]3(C)C(=O)O[C@H](C[C@@]4(CO4)[C@]1(O)CCc1ccoc1)[C@H]23` [LEONOTININ], the Ki in experiment [1], in experiment [2] and in experiment [4] was > 10 µM throughout. Also, in experiment [3], the inhibition (usually the percentage by which the read-out fell short of the control) is > 50%.

As to `CO[C@H]1C[C@]2(CC[C@@]3(O2)[C@]2(CO2)C[C@@H](OC(C)=O)[C@@H]2[C@]34CCC[C@]2(C)C(=O)OC4)CO1`, the inhibition in experiment [5] is > 50%.

In the case of `C[C@@]12CCC[C@]3(C)C(=O)O[C@H](C[C@@]4(CO4)[C@]14CC[C@]1(COC(O)C1)O4)[C@H]23` (mixture of isomers), the inhibition in experiment [5] and in experiment [6] was > 50% throughout.
